The values below come from patent US20250369050A1, “METHODS AND COMPOSITIONS RELATED TO ASSESSMENT AND TREATMENT OF KIDNEY DISEASE” (Board of Regents, The University of Texas System, priority 2022, published 2025).

Series [1] concerns Kidney tubules (MCT) cells. The series is described as follows: Adenine-induced fibronectin accumulation in MCT cells (FIG. 19). It is filed as cell-based, mouse. As to the method:
FIG. 19. Effect of Rapamycin and NaHS on Adenine. […] A. Kidney tubules (MCT) cells were pre-incubated with 10 nM of rapamycin for 30 min followed by incubation with 20 μM of adenine for 15 min. B. MCT cells were incubated with 20 μM of adenine and 250 μM NaHS for 15 min.

Series [2] concerns db/db mice. The protocol: FIG. 26. […] NaHS administered for 4 weeks to db/db mice and db/m mice and MTAP/-b-actin and fibronectin/b-actin levels were evaluated by immunoblotting. Urine ACR was measured at end of 4-week period of NaHS administration.
The subject of series [3] is mTOR pathway. The series is described as follows: Adenine-induced stimulation of mTOR pathway (P-S6K) in tubular cells (FIG. 28). The settings on record: adenine challenge. It is filed as cell-based. The source says: The downstream pathways stimulated by adenine are PI3Kinase, AKT and mTOR (FIG. 28). […] Once mTOR is inhibited the downstream effect of adenine to stimulate matrix accumulation was reduced (FIG. 19).

Series [4] has as its system kidney cells. Briefly: Adenine toxicity to kidney cells (FIG. 13). The format is cell-based.
Series [5] has as its system human proximal tubular cells (HK2). Briefly: ATP generation by Seahorse analysis in HK2 cells exposed to adenine. The format is cell-based.
The subject of series [6] is mice challenged with adenine. Briefly: In vivo IRsiRNA #1 with adenine challenge in drinking water in mice (FIG. 35). On the set-up: species or system mouse. As to the method:
FIG. 35. In vivo administration of IRsiRNA #1 reduced IR specifically in mouse kidney and prevented adenine-induced rise in BUN levels in mice. Mice were administered vehicle or kidney targeting IRsiRNA #1 prior to being challenged with adenine (5 mM) in the drinking water for 4 days.
In FIG. 35, in vivo administration of IRsiRNA #1 reduced IR specifically in mouse kidney and prevented adenine-induced rise in Blood Urea Nitrogen (BUN) levels in mice. Mice were administered vehicle or kidney targeting IRsiRNA #1 prior to being challenged with adenine (5 mM) in the drinking water for 4 days.

In series [7] the test system is kidney tubular cells. Briefly: Adenine stimulation of extracellular matrix molecules in kidney tubular cells. It is filed as cell-based.
Series [8] concerns mice. The series is described as follows: Adenine administration to mice (FIG. 30, 31). The format is in vivo, mouse. The source says:
FIG. 30. Adenine administration to mice increases serum sTNFR1 (A), plasma KIM-1 (B). (n=12 in control group and n=7 in adenine treated group, *p<0.05, **p<0.01, ***p<0.001, […] vs control by t-test or One-way ANOVA).
FIG. 31. Adenine administration to mice increases kidney (A) and heart (B) hypertrophy and mTOR mediated matrix molecules in the kidney (C). Quantitative assessment of phosphor-S6 kinase as a measure of mTOR (D), fibronectin/-b-actin (E) and collagen type 1 alpha 2 chain (F). (n=12 in control group and n=7 in adenine treated group, *p<0.05, **p<0.01, ***p<0.001, […] vs control by t-test or One-way ANOVA).
Patients with type 1 diabetes (n=8) or type 2 diabetes (n=8) have an increase in tissue levels of adenine in their kidney biopsies as compared to healthy controls (n=5)(FIG. 29). Adenine administration is causative of the major manifestations of diabetic kidney disease in a mouse model, including serum soluble tumor necrosis factor receptor-1 (sTNFR1) and plasma kidney injury […] (KIM1) (FIG. 30). Adenine also stimulates kidney hypertrophy and heart hypertrophy (FIG. 31) as well as kidney phosphor-S6-kinase (marker of mTOR activity), kidney fibronectin and kidney collagen type 1 alpha-2 chain (FIG. 31). An inhibitor of MTAP (DADMe-ImmA 10 mg/kg/d in drinking water for 8 weeks) reduces urine ACR, urine hydrogen peroxide (urine H2O2) and urine collagen in a mouse model of diabetic kidney disease (db/db mouse) (FIG. 32).

Series [9] has as its system mouse insulin receptor mRNA. Briefly: Insulin receptor mRNA knockdown in MCT cells by qRTPCR (FIG. 34). The format is cell-based. The conditions noted are these: reverse transfection, 72 h. The protocol: (§1) FIG. 34. siRNAs to insulin receptor (IR) based on sequence in mouse and rat reduces IR in mouse kidney cells. Mouse cortical tubular (MCT) cells were reverse transfected with siRNAs targeting mouse and rat insulin receptor mRNA (m/r IRsiRNA #1 and m/r IR siRNA #5) using RNAiMax (6 ul in optiMEM) and plated on 6 well plates. After 72 h of incubation, total RNA was isolated and subjected to cDNA synthesis followed by qRTPCR (n=6/group, ****p<0.0001).
as §1, with “34 illustrates the administration of the siRNA for the insulin receptor to mice treated with adenine reduced insulin receptor in the kidney but not in liver and prevented the increase in blood urea nitrogen levels (FIG. 35). In FIG. 34,” for “34.”

Series [10] has as its system patients with hyperfiltration. The series is described as follows: Urine adenine in type 1 diabetic patients with hyperfiltration treated with empagliflozin (FIG. 23). The format is in vivo, human. The conditions noted are these: high risk patients with hyperfiltration, after 8 weeks of treatment. The text has this:
FIG. 23. Empagliflozin reduces urine adenine levels in patients with hyperfiltration. Hyperfilterers (red lines and dots) and normofilterers (blue lines and dots). Overall effect of treatment (Visit 3 and 4 vs. Visit 12 and 13) on least square mean changes to log-transformed adenine levels is reported. Significant p-values stated. *p<0.05, **p<0.01.

For series [11], the system named is kidney cells. Briefly: Protection of kidney cells from cell death by MTAP inhibitor (FIG. 18). The format is cell-based. The settings on record: cell stress due to reduction of MDM2.
Series [12] concerns db/db mice. Briefly: MTAP inhibitor for 8 weeks in db/db mice (FIG. 32, 33). The format is in vivo, mouse. As to the method: FIG. 32. […] Control (db/m) and diabetic (db/db) mice were treated from week 12 to week 20 with MTAP inhibitor (10 mg/kg/day in drinking water) and 24 h urine samples were collected and measured for albumin/creatinine ratio (A), hydrogen peroxide/creatinine ratio (B) and collagen/creatinine ratio (C). (*p<0.05, ANOVA, n=5-6/group)
FIG. 33. […] Control (db/m) and diabetic (db/db) mice were treated from week 12 to week 20 with MTAP inhibitor (10 mg/kg/day in drinking water) and kidney weight was standardized per tibia length (A). Kidney cortex was immunoblotted for fibronectin and laminin y1 and standardized for b-actin with quantitative data shown in (B) and (C), respectively. (*p<0.05, ANOVA, n=5-6/group)

For series [13], the system named is mice undergoing ischemia-reperfusion injury. The series is described as follows: Ischemia-reperfusion injury in mice, BUN (FIG. 25). The format is in vivo, mouse. The settings on record: inhibitor given once before ischemia 30 min and reperfusion, BUN 24 h later. The protocol: FIG. 25. MTAP inhibitor DADMe-ImmA given once before ischemia-reperfusion injury prevents an increase in BUN levels in mice undergoing ischemia-reperfusion injury. Mice underwent ischemia for 30m followed by reperfusion and 24 h later, the BUN was measured.

Series [14] concerns human insulin receptor mRNA. Briefly: Insulin receptor mRNA knockdown in HK2 cells by qRTPCR (FIG. 36). The settings on record: 96 h after transfection, vs control siRNA. It is filed as cell-based. The protocol: FIG. 36. siRNA to Human and Pig Insulin receptor is effective to reduce mRNA for Insulin receptor in human kidney cells. Human kidney (HK2) proximal tubular cells were transfected with siRNA (4 ul from 10 um stock) using RNAiMax (6 ul in optiMEM) and plated on 6 well plates. After 48 h, the media was replaced with fresh media. After 96 h of the transfection, total RNA was isolated and subjected to cDNA synthesis followed by qRTPCR.
In this non-limiting example, siRNA targeting human/pig insulin receptor mRNA can reduce human insulin receptor in human tubular cells. (FIG. 36). In FIG. 36, siRNA to human and pig insulin receptor is effective to reduce mRNA for insulin receptor in human kidney cells. Human kidney (HK2) proximal tubular cells were transfected with siRNA (4 ul from 10 um stock) using RNAiMax (6 ul in optiMEM) and plated on 6 well plates. After 48 h, the media was replaced with fresh media. After 96 h of the transfection, total RNA was isolated and subjected to cDNA synthesis followed by qRTPCR.

The mark [15] stands for this setting: adenine administration vs control.
[16] abbreviates: 10 mg/kg/day in drinking water, week 12 to 20, 24 h urine.
The mark [17] stands for this setting: 10 mg/kg/day, 8 weeks, kidney cortex immunoblot.

Like-named read-outs stand apart in the source and are kept apart here.

`[Na+].[SH-]` [NaHS, sodium hydrogen sulfide]: the adenine-induced fibronectin production result in series [1] (MCT cells, 20 μM adenine and 250 μM NaHS for 15 min) is given as “inhibit adenine-induced fibronectin production”. Further, in series [1] (kidney cells, NaHS), the “adenine-induced disease causing pathways (mTOR)” value is listed as “protects against” and the “healing pathways (AMPK)” value is reported as “improving healing pathways (AMPK)”. In [2] (NaHS 4 weeks, kidney), the MTAP/b-actin by immunoblotting entry is given as “significant reduction” and the fibronectin/b-actin by immunoblotting result was “significant reduction”. Besides, the “urine ACR” value in [2] (end of 4-week NaHS administration) was “significant reduction”.
Take `Nc1ncnc2nc[nH]c12` [Adenine]: the “S6K phosphorylation (P-S6K)” value in series [3] is “increased within minutes of adenine challenge”. The “toxicity to kidney cells” value in [4] was “toxic to kidney cells”. Moreover, the ATP generation entry in [5] (dose dependence) was “dose-dependently reduced ATP generation”. For the same compound, the ATP generation entry in series [5] (high doses of adenine) was “complete reduction of ATP generation”. In addition, in [6] (vehicle and adenine 5 mM in drinking water for 4 days), the “elevation in BUN levels vs non-adenine group” value is reported as 3 fold. In series [7], the “Type I collagen” value is reported as “rapidly stimulates Type I collagen” and the fibronectin production result is “stimulates”. In [8] (adenine administration), the heart hypertrophy result is on record as “stimulates”, the “kidney collagen type 1 alpha-2 chain” value is listed as “stimulates”, the kidney fibronectin entry is “stimulates” and the kidney hypertrophy entry is recorded as “stimulates”. Further, in [8] (adenine administration), the “kidney phosphor-S6-kinase (marker of mTOR activity)” value is “stimulates”. Further, in series [8] (setting [15]), the “plasma KIM-1” value is on record as “increases” and the “serum sTNFR1” value is reported as “increases”.
In the case of “m/r IRsiRNA #1: siRNA targeting mouse/rat IR mRNA, SEQ ID NO. 1 (+) and SEQ ID NO. 2 (−) (sense GGCUCUGUCCGCAUCGAGAAGAAUA; antisense UAUUCUUCUCGAUGCGGACAGAGCCCC; listed as RNA, chemistry not fully specified)”, in series [9], the “mouse insulin receptor at mRNA level” value is listed as “significant reduction”. Further, the “IR in mouse kidney cortex” value in series [6] (day 4, immunoblot vs control sample) is reported as “reduction of IR in mouse kidney cortex”. Besides, in series [6] (siRNA before adenine 5 mM in drinking water for 4 days), the BUN levels result is “no increase in BUN levels”.
As to “m/r IR siRNA #5: siRNA targeting mouse/rat IR mRNA, SEQ ID NO. 9 (+) and SEQ ID NO. 10 (−) (sense AAAUCAGUUCCUCAAAUUGACCAAU; antisense AUUGGUCAAUUUGAGGAACUGAUUUUG; listed as RNA, chemistry not fully specified)”, the “mouse insulin receptor at mRNA level” value in [9] was “significant reduction”.
Consider `OC[C@H]1O[C@@H](c2ccc(Cl)c(Cc3ccc(O[C@H]4CCOC4)cc3)c2)[C@H](O)[C@@H](O)[C@@H]1O` [Empagliflozin], for which the urine adenine/creatinine levels entry in series [10] is “reduces urine adenine/creatinine levels”.
Regarding `CSC[C@H]1CN(Cc2c[nH]c3c(N)ncnc23)C[C@@H]1O` [MT-DADMe-ImmA, Methylthio-DADMe-Immucillin], the “protection of kidney cells from cell death” value in [11] is listed as “protects kidney cells from cell death”. Moreover, in series [12] (setting [16]), the “urine ACR” value was “reduces”, the “urine H2O2” value is on record as “reduces” and the urine collagen entry is “reduces”. Also, in [12] (setting [17]), the kidney fibronectin entry is on record as “reduced” and the “kidney laminin yI” value is recorded as “reduced”. In addition, the kidney hypertrophy entry in series [12] (10 mg/kg/day, 8 weeks, kidney weight per tibia length) was “reduced”. The BUN result in [13] was “no significant increase in BUN”.
“H/P IR siRNA #4: siRNA targeting human and pig IR mRNA, SEQ ID NO. 21 (+) and SEQ ID NO. 22 (−) (sense GGAAUGACCAGAGACAUCUAUGAAA; antisense UUUCAUAGAUGUCUCUGGUCAUUCCAA; listed as RNA, chemistry not fully specified)”: in [14], the “human insulin receptor mRNA” value is given as “significant reduction”.
“H/P siRNA #2: siRNA targeting human and pig IR mRNA, SEQ ID NO. 17 (+) and SEQ ID NO. 18 (−) (sense CAGUACGUCAUUCACAACAACAAGU; antisense ACUUGUUGUUGUGAAUGACGUACUGGU; listed as RNA, chemistry not fully specified)”: the “human insulin receptor mRNA” value in [14] is given as “significant reduction”.
